Ends that are not written are not given here.
How the values were obtained:
Assay type in all cases: cell-based, C. elegans
NPR-4b = target: T1, NPR-4b (Caenorhabditis elegans, UniProt A0A078BTK0); assay: cAMP reporter gene assay, Gi/o (inhibition of forskolin-induced cAMP), NPR-4b; conditions: transiently transfected HEK293 cells; for Gi (Gs) [x-fold of forskolin], NPR-4b, mean: inhibition of cAMP production induced by 1 µM forskolin (set to 1.00); for Gi (Gs) [x-fold of forskolin], NPR-4b, mean / cAMP, x-fold of forskolin (mean), NPR-4b: mean of at least three independent experiments; for cAMP, x-fold of forskolin (mean), NPR-4b: 1 µM forskolin set to 1.00
T1 sequence (A0A078BTK0 1-376): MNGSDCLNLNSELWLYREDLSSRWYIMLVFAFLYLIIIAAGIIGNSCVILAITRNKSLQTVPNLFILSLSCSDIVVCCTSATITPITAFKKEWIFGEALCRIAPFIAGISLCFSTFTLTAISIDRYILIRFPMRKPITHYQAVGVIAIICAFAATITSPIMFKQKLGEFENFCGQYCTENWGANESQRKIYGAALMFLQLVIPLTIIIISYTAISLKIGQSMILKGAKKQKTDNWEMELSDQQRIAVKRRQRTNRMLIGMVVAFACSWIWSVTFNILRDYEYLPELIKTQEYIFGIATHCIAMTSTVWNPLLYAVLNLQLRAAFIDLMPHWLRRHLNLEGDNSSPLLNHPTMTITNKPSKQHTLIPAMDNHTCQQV
Method: (§1) Activation of Gs and Gi/o was assessed with a cAMP reporter gene assay. HEK293 cells grown to 70–80% confluency in 6-well plates were transiently co-transfected with vectors encoding the receptor and the cAMP reporter gene plasmid pGL4.29 [luc2P/CRE/Hygro] (Promega; 4 μg total, 1:1 ratio) using Metafectene Pro (3 μl/μg DNA; Biontex) following the manufacturer’s instructions. 16 h post transfection, the cells were seeded into white 384-well plates at a density of 20,000 cells/well. On the next day, the medium was removed and the cells were stimulated with 20 μl of peptide solution (or forskolin as positive control) in serum-free DMEM for 4 h. For measuring Gi/o activity, the peptide solutions additionally contained 1 μM forskolin to elevate cellular cAMP levels. After incubation, the luciferase substrate OneGlo in lysis buffer (Promega) was added and the luminescence was measured in a microplate reader Tecan Spark (Tecan).
(§2) For in vitro activation, data is presented as mean ± SEM of at least three independent experiments conducted in technical triplicate. […] For the C. elegans NPRs, we considered the strongest response elicited by any of the peptides downstream of a particular receptor as the receptor’s maximal signal. This may or may not be the biological maximum that can be reached by the ‘true’ endogenous agonist. For the human receptors, the response to the established endogenous agonist reflected the maximal signal.

NPR-11 = target: T2, NPR-11 (Caenorhabditis elegans, UniProt Q18179); assay: cAMP reporter gene assay, Gi/o (inhibition of forskolin-induced cAMP), NPR-11; conditions: for Gi (Gs) [x-fold of forskolin], NPR-11, mean: inhibition of cAMP production induced by 1 µM forskolin (set to 1.00); for Gi (Gs) [x-fold of forskolin], NPR-11, mean / cAMP, x-fold of forskolin (mean), NPR-11: transiently transfected HEK293 cells, mean of at least three independent experiments; for cAMP, x-fold of forskolin (mean), NPR-11: 1 µM forskolin set to 1.00
T2 construct: expressed in transfected cells; host or cells: HEK293, transient
T2 sequence (Q18179 1-402): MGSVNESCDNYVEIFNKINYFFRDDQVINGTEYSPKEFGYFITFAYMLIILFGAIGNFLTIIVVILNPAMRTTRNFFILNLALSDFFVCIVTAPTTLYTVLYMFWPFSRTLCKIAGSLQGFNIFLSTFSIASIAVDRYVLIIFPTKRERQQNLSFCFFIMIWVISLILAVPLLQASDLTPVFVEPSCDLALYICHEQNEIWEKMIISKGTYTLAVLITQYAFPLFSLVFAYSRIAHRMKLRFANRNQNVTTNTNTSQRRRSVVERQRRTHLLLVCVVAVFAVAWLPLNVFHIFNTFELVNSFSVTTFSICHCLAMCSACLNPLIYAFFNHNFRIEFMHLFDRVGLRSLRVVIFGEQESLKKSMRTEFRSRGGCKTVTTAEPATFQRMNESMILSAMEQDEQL
Method: as §1, with “(Tecan). Data were analyzed with GraphPad Prism 5.03 and are shown as fold of basal or fold of forskolin in case of Gαi/o activity.” for “(Tecan).”
as §2

NPR-3 = target: T3, NPR-3 (Caenorhabditis elegans, UniProt P90745); assay: cAMP reporter gene assay, Gi/o (inhibition of forskolin-induced cAMP), NPR-3; conditions: for Gi (Gs) [x-fold of forskolin], NPR-3, mean: inhibition of cAMP production induced by 1 µM forskolin (set to 1.00); for Gi (Gs) [x-fold of forskolin], NPR-3, mean / cAMP, x-fold of forskolin (mean), NPR-3: transiently transfected HEK293 cells, mean of at least three independent experiments; for cAMP, x-fold of forskolin (mean), NPR-3: 1 µM forskolin set to 1.00
T3 construct: expressed in transfected cells; host or cells: HEK293
T3 sequence (P90745 1-376): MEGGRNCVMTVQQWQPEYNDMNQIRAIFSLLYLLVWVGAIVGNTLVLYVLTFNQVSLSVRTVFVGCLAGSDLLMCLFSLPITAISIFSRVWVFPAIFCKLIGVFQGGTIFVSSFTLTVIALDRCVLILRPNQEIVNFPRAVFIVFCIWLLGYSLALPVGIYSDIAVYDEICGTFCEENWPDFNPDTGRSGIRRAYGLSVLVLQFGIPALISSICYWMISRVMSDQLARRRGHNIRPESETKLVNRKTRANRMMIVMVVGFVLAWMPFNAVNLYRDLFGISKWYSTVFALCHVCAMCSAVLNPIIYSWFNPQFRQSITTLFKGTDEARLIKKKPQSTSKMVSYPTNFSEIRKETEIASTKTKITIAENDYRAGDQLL
Method: as §1, with “(Tecan). Data were analyzed with GraphPad Prism 5.03 and are shown as fold of basal or fold of forskolin in case of Gαi/o activity.” for “(Tecan).”
as §2

NPR-1 = target: T4, NPR-1 (Caenorhabditis elegans, UniProt Q18534); assay: cAMP reporter gene assay, Gi/o (inhibition of forskolin-induced cAMP), NPR-1; set-up: host or cells: HEK293; conditions: for Gi (Gs) [x-fold of forskolin], NPR-1, mean / cAMP, x-fold of forskolin (mean), NPR-1: inhibition of cAMP production induced by 1 µM forskolin (set to 1.00), transiently transfected HEK293 cells, mean of at least three independent experiments; for cAMP, x-fold of forskolin (mean), NPR-1: lower = higher Gi/o activity
T4 sequence (Q18534 1-457): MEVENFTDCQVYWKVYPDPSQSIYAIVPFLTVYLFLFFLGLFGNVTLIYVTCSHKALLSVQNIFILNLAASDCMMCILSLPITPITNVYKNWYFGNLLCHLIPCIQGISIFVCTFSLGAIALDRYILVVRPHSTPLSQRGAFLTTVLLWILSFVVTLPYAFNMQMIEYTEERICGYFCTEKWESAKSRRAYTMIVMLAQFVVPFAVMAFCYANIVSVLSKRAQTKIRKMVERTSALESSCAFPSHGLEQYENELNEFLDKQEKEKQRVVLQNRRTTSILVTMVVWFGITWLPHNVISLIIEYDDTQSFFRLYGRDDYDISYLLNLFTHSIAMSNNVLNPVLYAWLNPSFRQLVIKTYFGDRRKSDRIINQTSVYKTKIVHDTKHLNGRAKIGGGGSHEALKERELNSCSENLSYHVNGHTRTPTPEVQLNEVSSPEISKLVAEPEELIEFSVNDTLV
Method: as §1, with “(Tecan). Data were analyzed with GraphPad Prism 5.03 and are shown as fold of basal or fold of forskolin in case of Gαi/o activity.” for “(Tecan).”
as §2

[1] = HEK293, read-out: Emax ± SEM [%], SEM

Substance	cAMP, x-fold of forskolin (mean), NPR-4b (NPR-4b; 0.1 µM peptide)	cAMP, x-fold of forskolin (mean), NPR-4b (NPR-4b; 10 µM peptide)	cAMP, x-fold of forskolin (mean), NPR-11 (NPR-11; 0.1 µM peptide)	cAMP, x-fold of forskolin (mean), NPR-11 (NPR-11; 10 µM peptide)	cAMP, x-fold of forskolin (mean), NPR-3 (NPR-3; 0.1 µM peptide)	cAMP, x-fold of forskolin (mean), NPR-3 (NPR-3; 10 µM peptide)	cAMP, x-fold of forskolin (mean), NPR-1 (NPR-1; 0.1 µM peptide)	cAMP, x-fold of forskolin (mean), NPR-1 (NPR-1; 10 µM peptide)	also measured
RGPSGPLAF-NH2 [[R8A]FLP-15-2]	–	–	–	–	–	–	–	–	Gi (Gs) [x-fold of forskolin], NPR-4b, mean (NPR-4b; 0.1 µM peptide): 0.93 x-fold of forskolin; Gi (Gs) [x-fold of forskolin], NPR-4b, mean (NPR-4b; 10 µM peptide): 0.97 x-fold of forskolin; Gi (Gs) [x-fold of forskolin], NPR-11, mean (NPR-11; 0.1 µM peptide): 0.93 x-fold of forskolin; Gi (Gs) [x-fold of forskolin], NPR-11, mean (NPR-11; 10 µM peptide): 0.53 x-fold of forskolin; Gi (Gs) [x-fold of forskolin], NPR-3, mean (NPR-3; 0.1 µM peptide): 0.97 x-fold of forskolin; Gi (Gs) [x-fold of forskolin], NPR-3, mean (NPR-3; 10 µM peptide): 0.88 x-fold of forskolin; Gi (Gs) [x-fold of forskolin], NPR-1, mean (NPR-1; 0.1 µM peptide): 0.84 x-fold of forskolin; Gi (Gs) [x-fold of forskolin], NPR-1, mean (NPR-1; 10 µM peptide): 0.85 x-fold of forskolin
RGPSGPLRF-NH2 [FLP-15-2]	–	–	–	–	–	–	–	–	Emax (NPR-4b; NPR-4b, forskolin (1 µM) set to 1.00, lower values correspond to high Gi/o activity, mean ± SEM of at least three independent experiments, SEM): -0.65 ± 0.07%; EC50 (NPR-11): 998 nM; Emax (NPR-11; [1]): -0.76 ± 0.11%; Emax (NPR-3; [1]): -0.8 ± 0.09%; EC50 (NPR-3; SEM): 50.1 nM; Emax (NPR-1; [1]): -0.92 ± 0.1%; EC50 (NPR-1; SEM): 25.1 nM
TPDINPAWYASRGIRPVGRF-NH2 [PrRP20, human prolactin-releasing peptide, 20 residues, reference compound]	1.10 x-fold of forskolin	0.67 x-fold of forskolin	0.90 x-fold of forskolin	0.65 x-fold of forskolin	1.00 x-fold of forskolin	1.23 x-fold of forskolin	1.14 x-fold of forskolin	1.45 x-fold of forskolin	–
TSGPLGNLAEELNGYSRKKGGFSFRF-NH2 [QRFP26, human pyroglutamylated RFamide peptide, 26 residues, reference compound]	0.89 x-fold of forskolin	0.34 x-fold of forskolin	0.14 x-fold of forskolin	0.06 x-fold of forskolin	0.90 x-fold of forskolin	0.97 x-fold of forskolin	1.17 x-fold of forskolin	0.84 x-fold of forskolin	–
